In patent US20080194540A1, “Use of a Tricyclic Antidepressant Drug For Promoting Endocytosis” (RINA NETZWERK RNA-TECHNOLOGIEN GMBH, priority 2003, published 2008):

Key:
HepG2 cells = experiment: Mammal cells system transfection with luciferase plasmid (luciferase activity); type: cell-based; conditions: FIG. 1b, concentration series, ordinate values standardized to chloroquine
Procedure: HepG2 cells were drawn in Dulbecco's Modified Eagle Medium (DMEM, Gibco BRL, Eggenstein, Germany), supplemented with 10% FBS (fetal bovine serum, Gibco) and 1 μg/ml insulin. On day 1, the cells were removed by means of trypsination, washed and distributed on the wells of a 24-well tissue culture dish, namely 1.5·10^7 cells per well.
24 hours later the transfection tests were performed with the luciferase plasmid from example 1 with different substances at approx. 70 to 80% confluence. The supernatant was removed, and then a mixture (250 μl) containing medium, 12.5 μl dextran (10 mg/ml), 0.5 μl of the plasmid and the respective substance was added to every well. After 2.5 hours incubation at 37° C., the supernatant was removed, and 500 μl complete medium were added to each well. On day 5, the luciferase activity was measured by using the Dual Luciferase® Reporter Assay Kit (Promega, Mannheim, Germany). For this purpose, 48 hours after the transfection, the cell culture supernatants were removed, and the cells were solubilized after addition of 100 μl 1× lysis buffer per well (Promega) for 20 minutes at 20° C. on a slow shaker. 20 μl of the cell-free supernatant were transferred into a 96-well plate (Corning and Costar, Wiesbaden, Germany) and reacted with 100 μl luciferase assay buffer. The luciferase activity was measured with a luminometer (EG&G Berthold MicrolumatPlus).
For each used substance, the optimum concentration was determined by means of concentration series. For this purpose, concentration series of the respective substances were used. For comparing, corresponding measurements were performed with chloroquine. […] The ordinate values are standardized to chloroquine.

[1] = system: yeast cells (strain RPY10); experiment: Yeast system transfection with pFL1 plasmid (cfu relative to negative control); type: cell-based, Saccharomyces cerevisiae; conditions: FIG. 1a, concentration series, ordinate values standardized to chloroquine
Procedure: A first cell system is a yeast system. The transfection protocol corresponded to that of the document B. Neukamm et al., Biochimica et Biophysica Acta 1572:67-76 (2002). For the measurements, a lab robot (Zinsser, Frankfurt, Germany) was used, and a pipetting protocol was prepared.
Yeast precultures were drawn from cultures of a −70° C. glycerol stock of the strain RPY10 (R. C. Piper et al., Eur J Cell Biol 65:305-318 (1995)) for 72 hours. In the main culture, the cells were drawn over night in YPD medium up to a cell density of 5 to 8·10^7 cells/ml. 12·10^9 cells were harvested and washed twice with the same volume of distilled water. The cells were made competent for the transfection by soaking in distilled water for 30 minutes at 4° C. The competent cells were harvested and resuspended in 10 ml 34% sucrose, adjusted with HCl to pH 4. The suspension was immediately transferred into a sterilized 40 ml glass tube (Zinsser Analytik, Frankfurt, Germany), which were then sealed by an aluminum foil. The tubes were then placed on a shaker on the platform of the lab robot and treated for 40 seconds at 300 rpm. The suspension was automatically distributed into the wells of a 96-well microtiter plate (80 μl each by using stainless steel tips).
The subsequent pipetting protocol was as follows. First, solutions of a substance according to the invention or of a reference substance in different concentrations were added. Exactly 5 minutes later, 10 μl of a solution or suspension of the pFL1 plasmid (0.15 μg/μl) of example 1 were automatically added to the mixture of cells and substance. Some wells were used for a negative control, and only the used solvents and the plasmid were added to the cell suspension, not however the substance. After termination of the pipetting protocol, the plate was covered and placed on the Desyre mixer (Zinsser Analytik). After vortexing for 1 minute at 1,300 rpm, an incubation was performed at 28° C. for 18-20 hours. After the incubation, 110 μl distilled water each were slowly added. Then the cells of each well were transferred to 6-well plates (PS Macroplate, Greiner), filled up with 4 ml WMIXura (Neukamm et al., see above). The wells of the microtiter plate were each washed with 50 μl distilled water, and the washing solution was pipetted on the solid surface of the WMIXura. The macroplates were left dry and incubated for 4 days at 28° C.
Colony forming units (cfu) were then counted in every well. The obtained cfu values were related to the cfu values of the negative control. This ratio is a measure for the transfection effectivity.
For each used substance, the optimum concentration was determined by means of concentration series. For this purpose, concentration series of the respective substances were used. […]

Compound | optimum concentration for promoting transfection, compared to chloroquine (HepG2 cells) | optimum concentration for promoting transfection, compared to chloroquine [1]
Clc1ccc2c(c1)C(N1CCNCC1)=Nc1ccccc1O2 [amoxapine] | smaller | smaller
CN(C)CCCN1c2ccccc2Sc2ccc(Cl)cc21 [chlorpromazine] | smaller | smaller
CN(C)CCC=C1c2ccccc2COc2ccccc21 [doxepine] | similarly high | similarly high
CNCCCC12CCC(c3ccccc31)c1ccccc12 [maprotyline] | smaller | smaller
